Source: the NIST ThermoML archive (doi:10.1021/je049595u)

Assay: molar heat capacity at saturation pressure

Cc1ccc2ccccc2n1 [2-methylquinoline]
molar heat capacity [J/K/mol], Vacuum adiabatic calorimetry
Conditions | Crystal | Liquid
80 K | 64.8 | –
84.08 K | 67.08 | –
89.02 K | 69.74 | –
90 K | 70.27 | –
92.31 K | 71.48 | –
97.21 K | 73.97 | –
100 K | 75.42 | –
101.28 K | 76.06 | –
106.32 K | 78.59 | –
110.83 K | 80.82 | –
116.09 K | 83.37 | –
120 K | 85.27 | –
125.97 K | 88.15 | –
135.92 K | 92.98 | –
140 K | 94.96 | –
145.89 K | 97.82 | –
155.92 K | 102.78 | –
160 K | 104.8 | –
166.03 K | 107.81 | –
176.22 K | 112.93 | –
180 K | 114.86 | –
187.41 K | 118.71 | –
190.57 K | 120.24 | –
199.53 K | 125.07 | –
200 K | 125.32 | –
205.56 K | 128.27 | –
211.51 K | 131.45 | –
220 K | 135.9 | –
222.27 K | 136.99 | –
223.47 K | 137.78 | –
223.49 K | 138.03 | –
235.04 K | 144.29 | –
235.46 K | 144.65 | –
239.04 K | 146.8 | –
240 K | 147.3 | –
241.52 K | 148.31 | –
247.49 K | 151.95 | –
250 K | – | 205.2
250.7 K | 154.08 | –
251.78 K | – | 205.82
256.02 K | – | 207.51
257.75 K | 159.11 | –
259.67 K | 160.66 | –
260 K | 160.12 | 209.03
261.22 K | 161.55 | –
263.55 K | – | 210.39
270.48 K | 167.45 | 212.97
272.7 K | – | 213.77
277.13 K | – | 215.45
278.52 K | – | 216.02
280 K | – | 216.58
285.4 K | – | 218.72
286.61 K | – | 219.19
294.19 K | – | 222.16
298.15 K | – | 223.78
300 K | – | 224.52
300.52 K | – | 224.72
310.63 K | – | 228.85
320 K | – | 232.73
327.13 K | – | 235.7
340 K | – | 241.04
343.64 K | – | 242.54
360 K | – | 249.4
360.17 K | – | 249.47
376.73 K | – | 256.39
380 K | – | 257.77
393.31 K | – | 263.29
400 K | – | 266.05
409.82 K | – | 270.1
420 K | – | 274.27
426.33 K | – | 276.86
439.48 K | – | 282.23
440 K | – | 282.48

Liquid
Conditions | molar heat capacity [J/K/mol]
460 K | 291.16
480 K | 299.73
500 K | 308.3
520 K | 316.87
540 K | 325.39
560 K | 333.78
580 K | 341.97
600 K | 349.93
620 K | 357.61
640 K | 365.01
660 K | 372.23
680 K | 379.58
700 K | 387.75
